Assay results: PMC10398685 (ACS Omega, 2023)

Experiments:
[1] = test system: 6 human methyltransferases (PRMT6, SUV39H1, SUV39H2, SETDB1, SETD7, and MLL1); assay type: biochemical; conditions: tested at 1 μM by SPA assay, duplicate
Calu-3 cells = assay: Steady-state intracellular uptake in Calu-3 cells; assay type: in vitro ADME; conditions: Calu-3, 60 min incubation, 50 μM at t = 0
Source text: (§1) While an enzymatic MTase assay represents a valuable fast screening platform providing the information that can be directly used for SAR analyses, it is not fully predictive for the compounds’ activity in whole cells. In order to verify the ability of the compounds to reach the intracellular compartment, we measured the steady-state accumulation of representative compounds in intact CCRF-CEM, VERO-E6, and Calu-3 cells (Tables 3 and S2). […] Compound 12q was almost completely cleared from the medium after 60 min incubation with the cells rendering it among the most permeable compounds of the series based on Kp values. It should be noted that the apparent intracellular concentration of the compounds may be biased by their potential metabolism. Therefore, we decided to subject the selected derivatives to in vitro stability studies. […]
(§2) methyltransferase activity as counts per minute (CPM). The CPM measurements in the absence of compound (5% DMSO) for each enzyme was defined as 100% activity.
(§3) 3.3. Intracellular Uptake
(§4) Steady-state cellular uptake was measured in CCRF-CEM cells (ATCC, CRL-119), VERO-E6 cells (ATCC, CRL-1586) and Calu-3 cells (HTB-55), respectively. Suspension cells (CCRF-CEM) were treated as follows: Prior to the experiment, cells were washed by centrifugation (250 x g, 5 min) in prewarmed (37 °C) serum-free RPMI medium and resuspended in the same vehicle to a concentration of 2 x 10^7 cells per mL. The cell suspension was distributed into the microtubes in 500 μL aliquots (10^7 cells), and the uptake process was initiated by the addition of 2.5 μL of the 10 mM DMSO solutions of the compounds (50 μM final conc.). Samples were incubated for 60 min at 37 °C in a CO 2 incubator using a rotary stirrer. The uptake was terminated by centrifugation at 900 x g for 5 min, at +4 °C. The medium was stored at −20 °C for later analysis of the extracellular concentration of the compounds. The cells were washed two times with 1 mL PBS (900 x g, 5 min, +4 °C), and also stored at −20 °C for subsequent analysis of the intracellular concentration of the compounds. At the day of the analysis, both media and the pelleted cells were quickly thawed. The cell pellets were extracted with 200 μL of ice-cold methanol by vigorous shaking, further diluted 1:1 with water and centrifuged at 20 000 x g for 10 min. As for the media samples, 10 μL aliquots were extracted with 990 μL of 50% methanol. The samples were then transferred to ECHO® -compatible 384-well plates and the amount of analytes were quantified by the ECHO -MS® System (Sciex) where acoustic droplet ejection module is coupled with Sciex 6500® triple quadrupole mass spectrometer operating with an electrospray ionization source. Spectrometer was run in the multiple reaction monitoring (MRM) mode. When necessary, the processed samples were further diluted in 50% methanol to fit in the calibration range. Calibration curves of the compounds in 50% methanol were measured alongside the samples within the same run. The ra tio between the total compound concentration in the cells and compound concentration in the medium (K p) at t=60 min was calculated according to: Kp = (Acell / Vcell) / Cmedium, where Acell is the amount of compound in the cell lysate, Vcell is the CCRF-CEM cell volume (3.38 μL/10^7 cells)16 and Cmedium is the compound concentration in the medium sample after correcting for sample dilution. Experiments were performed in duplicates.
(§5) For adherent cells (Vero E6 and Calu-3), the workflow was modified as follows: Cells were seeded on 6-well plates at a concentration of […] and 8.2 x 10^5 cells/well for Vero E6 and Calu-3, respectively, in 3 mL of serum-free culture media. The cells were left to attach overnight, the medium was then aspirated and replenished with 2 mL of fresh media containing the compounds (50 µM final conc). After 60 min at 37 °C the media was aspirated and the cells were washed twice with 1 mL of PBS. Then, 1 mL of fresh PBS was added and the cells were […]

[2] = Steady-state intracellular uptake in Calu-3 cells; assay type: in vitro ADME; conditions: human, Calu-3 cells; Calu-3, 60 min incubation, 50 μM at t = 0; read-out: Kp (intracellular accumulation ratio IC/EC) (converted)
Source text: as §1, §2, §3, §4, §5

[3] = target: T1, SARS-CoV-2 nsp10-nsp16 complex (Severe acute respiratory syndrome coronavirus 2, UniProt P0DTD1); assay type: biochemical; conditions: tested at 1 μM by SPA assay, duplicate
T1 construct: Nsp10-nsp16 reactions contained 100 nM nsp10-nsp16 complex

[4] = Caco-2 permeability assay; assay type: in vitro ADME; conditions: human; for recovery at 3 h, 5 µM / Papp A→B at 3 h, 5 µM / Papp B→A at 3 h, 5 µM: Caco-2, 5 µM; for Papp A→B at 3 h, 5 µM / Papp B→A at 3 h, 5 µM: pH 7.4/7.4, 3 h; for efflux ratio at 3 h, 5 µM: Caco-2, (Papp B-A)/(Papp A-B)
Experimental: (§6) 3.6. Caco-2 permeability assay
(§7) Transepithelial bi-directional transport of tested compounds (5 µM, pH 7.4/7.4) across the Caco-2 monolayers was studied using the BD BioCoat HTS Caco -2 assay system (BD Biosciences, Bedford, MA) as described in detail elsewhere.17 Aliquots were collected from the donor and acceptor compartment at the end of transport period (3 h), integrity of monolayers were verified using Lucifer Yellow dye and the compounds were quantified using LC-MS/MS (Sciex 6500® triple quadrupole). The apparent permeability coefficient (Papp) was calculated from the following equation: Papp = (dQ / dt) / C0 * A, where dQ/dt is the rate of absorption of the drug across the cells, C0 is the donor compartment concentration at time zero, and A is the area of the monolayer. Efflux ratio was expressed as (Papp B-A) / (Papp A-B). Recovery (%) was determined as (total compound mass in donor and receiver compartments at the end of the incubation / initial compound mass in the donor compartment) x 100.

Caco-2 monolayers = assay: Caco-2 permeability assay; assay type: in vitro ADME; conditions: Caco-2, 5 µM, pH 7.4/7.4, 3 h
Experimental: as §6, §7

Structure (SMILES) | Selectivity against 6 human methyltransferases [1] | EC (extracellular concentration in the media at t = 60 min) ± sd (Calu-3 cells) [µM] | Kp at 1 h, 50 µM [2] | Selectivity against SARS-CoV-2 nsp10-nsp16 complex [3] | recovery at 3 h, 5 µM [4] [%] | Papp A→B at 3 h, 5 µM [4] [×10⁻⁶ cm/s] | Papp B→A at 3 h, 5 µM [4] [×10⁻⁶ cm/s] | efflux ratio at 3 h, 5 µM [4] | IC (intracellular concentration in the cells at t = 60 min) ± sd (Calu-3 cells) | Papp B-A (Caco-2 monolayers)
COc1ccc(S(=O)(=O)N(C)C[C@H]2O[C@@H](n3cc(C#Cc4cccnc4)c4c(N)ncnc43)[C@H](O)[C@@H]2O)cc1C#N [Compound 12s] | selective | 14.7 ± 0.8 | 106 | selective | 3 | 0.4 ± 0.3 | 0.3 ± 0.1 | 1.3 |  | 
COc1ccc(S(=O)(=O)N(C)C[C@H]2O[C@@H](n3cc(C#Cc4cnc5ccccc5c4)c4c(N)ncnc43)[C@H](O)[C@@H]2O)cc1C#N [Compound 12q] | selective | 5.6 ± 5.7 |  | selective | 4 | 0.2 |  | 0.4 | 89,640 ± 6514 μM | 0.0 ± 0.0 x10-6 (cm/s)
COc1ccc(S(=O)(=O)N(C)C[C@H]2O[C@@H](n3cc(C#Cc4ccc(C(N)=O)cc4)c4c(N)ncnc43)[C@H](O)[C@@H]2O)cc1C#N [Compound 12r] | selective | 4.0 ± 0.2 | 1250 | selective | 1 | 0.1 ± 0.1 | 0.1 | 0.1 |  | 
CCN(C[C@H]1O[C@@H](n2cc(C#Cc3cccnc3)c3c(N)ncnc32)[C@H](O)[C@@H]1O)S(=O)(=O)c1ccc(OC)c(C#N)c1 [Compound 12l] |  |  |  |  | 17 | 0.1 | 0.1 | 0.9 |  | 
CCN(C[C@H]1O[C@@H](n2cc(C#Cc3cnc4ccccc4c3)c3c(N)ncnc32)[C@H](O)[C@@H]1O)S(=O)(=O)c1ccc(OC)c(C#N)c1 [Compound 12e] |  | 5 ± 4 | 1770 |  |  |  |  |  |  | 
